Patent US20250230171A1 (MOMA Therapeutics, Inc., priority 2023, published 2025)
pIC50: −log10 of the molar value. Read-outs that look alike come from different tables or passages of the source.

Columns and labels:
[1] = target: biotinylated Avi-POLθ[2-894] (Homo sapiens (Human), UniProt O75417); experiment: POLθ ATPase assay (ADP-Glo); settings: n=2, read-out: Biochemical ATPase ADPGlo IC50
DLD1 BRCA2 (−/−) cells = experiment: 7-day cell viability assay (CellTiter-Glo), DLD1 BRCA2 (−/−); assay type: cell-based, human; settings: n=2, read-out: Viability IC50 (uM) DLD1 BRCA2 null
Outline: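 7-day growth assay in DLD1 cells with or without BRCA2; seeding densities chosen to keep log-linear growth. Compound: 10 uM top, 3-fold, 9 points. Endpoint: CTG ATP luminescence at RT.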

DLD1 WT cells = experiment: 7-day cell viability assay (CellTiter-Glo), DLD1 parental (WT); assay type: cell-based, human; settings: n=2
[2] = Homo sapiens, DLD-1, 168 h, 7-day viability
[3] = Homo sapiens, DLD-1, 168 h, 7-day CellTiter-Glo

Chain of biotinylated Avi-POLθ[2-894] (O75417 2-894): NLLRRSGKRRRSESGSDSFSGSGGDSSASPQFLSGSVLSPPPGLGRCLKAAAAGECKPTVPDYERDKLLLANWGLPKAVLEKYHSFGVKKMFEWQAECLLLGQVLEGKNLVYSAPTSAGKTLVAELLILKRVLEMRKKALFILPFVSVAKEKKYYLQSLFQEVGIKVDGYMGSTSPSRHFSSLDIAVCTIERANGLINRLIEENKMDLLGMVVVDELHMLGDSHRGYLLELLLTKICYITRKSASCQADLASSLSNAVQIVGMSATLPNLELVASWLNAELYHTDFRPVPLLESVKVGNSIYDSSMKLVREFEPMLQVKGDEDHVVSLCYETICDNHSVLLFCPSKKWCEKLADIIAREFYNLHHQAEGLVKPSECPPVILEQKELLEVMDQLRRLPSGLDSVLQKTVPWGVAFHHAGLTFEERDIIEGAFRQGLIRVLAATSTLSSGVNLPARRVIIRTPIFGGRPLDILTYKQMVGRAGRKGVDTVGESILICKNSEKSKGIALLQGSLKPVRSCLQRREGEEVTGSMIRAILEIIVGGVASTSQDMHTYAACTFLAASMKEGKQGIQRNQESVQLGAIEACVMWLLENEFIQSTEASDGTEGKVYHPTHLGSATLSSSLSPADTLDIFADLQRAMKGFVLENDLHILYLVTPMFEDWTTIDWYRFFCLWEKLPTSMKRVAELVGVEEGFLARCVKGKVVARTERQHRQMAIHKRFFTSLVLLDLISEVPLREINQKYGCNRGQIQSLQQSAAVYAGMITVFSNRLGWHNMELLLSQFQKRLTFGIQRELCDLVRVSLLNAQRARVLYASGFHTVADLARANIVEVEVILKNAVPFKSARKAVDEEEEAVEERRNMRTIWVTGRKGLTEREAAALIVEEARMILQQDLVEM

IC50 (DLD1 BRCA2 (−/−) cells; [3]) | Compound | IC50 (DLD1 WT cells; [3]) | other results
 | 4-(5-Cyano-2-methoxyphenyl)-N-(5-(4-(difluoromethyl)-2-methoxybenzoyl)-5,6-dihydro-4H-pyrrolo[3,4-d]thiazol-2-yl)-6-methylnicotinamide [Example 481] |  | pIC50 ([1]; POLθ ATPase, ADP-Glo): 7.82 to 9.00; IC50 (DLD1 BRCA2 (−/−) cells; 7-day CellTiter-Glo): 0.001 to 0.1 µM; IC50 (DLD1 WT cells; 7-day CellTiter-Glo): ≥ 10 µM
 | COc1cnc(Cl)cc1-c1cc(C)ncc1C(=O)Nc1nc2c(s1)CN(C(=O)c1c(C)cnn1C)C2 [Example 81, 2′-chloro-N-(5-(1,4-dimethyl-1H-pyrazole-5-carbonyl)-5,6-dihydro-4H-pyrrolo[3,4-d]thiazol-2-yl)-5′-methoxy-6-methyl-[4,4′-bipyridine]-3-carboxamide] |  | pIC50 [1]: 7.82 to 9.00; IC50 (DLD1 BRCA2 (−/−) cells; [2]): 0.001 to 0.1 µM; IC50 (DLD1 WT cells; [2]): ≥ 10 µM
0.001 to 0.1 µM | COc1cnc(Cl)cc1-c1cc(C)ncc1C(=O)Nc1nc2c(s1)CN(C(=O)c1c(Cl)ccnc1OC)C2 [Example 460] | 5 to 10 µM | pIC50 ([1]; POLθ ATPase, ADP-Glo): 7.82 to 9.00
 | COc1cnc(Cl)cc1-c1cc(C)ncc1C(=O)Nc1nc2c(s1)CC(Nc1ccc(O)cc1)CC2 (centres unmarked) [Example 135] |  | pIC50 [1]: 7.82 to 9.00; IC50 (DLD1 BRCA2 (−/−) cells; [2]): 0.5 to 2 µM; IC50 (DLD1 WT cells; [2]): 5 to 10 µM
0.001 to 0.1 µM | COc1cnc(Cl)cc1-c1cc(C)ncc1C(=O)Nc1nc2c(s1)CN(C(=O)c1ccc(C(F)F)cc1Cl)C2 | ≥ 10 µM | pIC50 ([1]; POLθ ATPase, ADP-Glo): 7.82 to 9.00
0.1 to 0.25 µM | COc1cnc(Cl)cc1-c1cc(C)ncc1C(=O)Nc1nc2c(s1)CN(C(=O)c1cc(C)cc(Cl)n1)C2 [Example 392, 2′-chloro-N-(5-(6-chloro-4-methylpicolinoyl)-5,6-dihydro-4H-pyrrolo[3,4-d]thiazol-2-yl)-5′-methoxy-6-methyl-[4,4′-bipyridine]-3-carboxamide] | ≥ 10 µM | 
0.001 to 0.1 µM | COc1cnc(Cl)cc1-c1cc(C)ncc1C(=O)Nc1nc2c(s1)CN(C(=O)c1nccc(C(F)F)c1OC)C2 [Example 966, 2′-chloro-N-(5-(4-(difluoromethyl)-3-methoxypicolinoyl)-5,6-dihydro-4H-pyrrolo[3,4-d]thiazol-2-yl)-5′-methoxy-6-methyl-[4,4′-bipyridine]-3-carboxamide] | ≥ 10 µM | 
0.001 to 0.1 µM | COc1cnc(Cl)cc1-c1cc(C)ncc1C(=O)Nc1nc2c(s1)CN(Cc1cccc(C(F)F)n1)C2 | ≥ 10 µM | 
0.001 to 0.1 µM | COc1ccc(C#N)cc1-c1cc(C)ncc1C(=O)Nc1nc2c(s1)CN(C(=O)c1ccc(C(F)(F)F)nc1OC)C2 [Example 1005, 4-(5-cyano-2-methoxyphenyl)-N-(5-(2-methoxy-6-(trifluoromethyl)nicotinoyl)-5,6-dihydro-4H-pyrrolo[3,4-d]thiazol-2-yl)-6-methylnicotinamide] | ≥ 10 µM | 
0.001 to 0.1 µM | COc1cnc(Cl)cc1-c1cc(C)ncc1C(=O)Nc1nc2c(s1)CN(C(=O)c1nc(C)c(C(F)F)cc1Cl)C2 | ≥ 10 µM | 
0.001 to 0.1 µM | COc1cnc(Cl)cc1-c1cc(C)ncc1C(=O)Nc1nc2c(s1)CN(C(=O)c1nccc(C(F)F)c1F)C2 [Example 949, 2′-chloro-N-(5-(4-(difluoromethyl)-3-fluoropicolinoyl)-5,6-dihydro-4H-pyrrolo[3,4-d]thiazol-2-yl)-5′-methoxy-6-methyl-[4,4′-bipyridine]-3-carboxamide] | ≥ 10 µM | 
0.001 to 0.1 µM | COc1cnc(Cl)cc1-c1cc(C)ncc1C(=O)Nc1nc2c(s1)CN(C(=O)c1ncc(C)nc1OC)C2 [Example 905, 2′-chloro-5′-methoxy-N-(5-(3-methoxy-5-methylpyrazine-2-carbonyl)-5,6-dihydro-4H-pyrrolo[3,4-d]thiazol-2-yl)-6-methyl-[4,4′-bipyridine]-3-carboxamide] | ≥ 10 µM | 
0.001 to 0.1 µM | COc1cnc(Cl)c(F)c1-c1cc(C)ncc1C(=O)Nc1nc2c(s1)CN(C(=O)c1ccc(C(F)(F)F)nc1OC)C2 [Example 1023, 2′-chloro-3′-fluoro-5′-methoxy-N-(5-(2-methoxy-6-(trifluoromethyl)nicotinoyl)-5,6-dihydro-4H-pyrrolo[3,4-d]thiazol-2-yl)-6-methyl-[4,4′-bipyridine]-3-carboxamide] | ≥ 10 µM | 
0.001 to 0.1 µM | COc1cnc(C(F)F)cc1-c1cc(C)ncc1C(=O)Nc1nc2c(s1)CN(C(=O)c1ccc(C(F)(F)F)nc1OC)C2 [Example 1016, 2′-(difluoromethyl)-5′-methoxy-N-(5-(2-methoxy-6-(trifluoromethyl)nicotinoyl)-5,6-dihydro-4H-pyrrolo[3,4-d]thiazol-2-yl)-6-methyl-[4,4′-bipyridine]-3-carboxamide] | ≥ 10 µM | 
 | 2′-chloro-N-(5-(5-chloro-2-methylisonicotinoyl)-5,6-dihydro-4H-pyrrolo[3,4-d]thiazol-2-yl)-5′-methoxy-6-methyl-[4,4′-bipyridine]-3-carboxamide [Example 519] |  | IC50 (DLD1 BRCA2 (−/−) cells; 7-day CellTiter-Glo): 0.001 to 0.1 µM; IC50 (DLD1 WT cells; 7-day CellTiter-Glo): ≥ 10 µM
 | 2′-chloro-N-(5-(5-chloro-4-(difluoromethyl)pyrimidine-2-carbonyl)-5,6-dihydro-4H-pyrrolo[3,4-d]thiazol-2-yl)-5′-methoxy-6-methyl-[4,4′-bipyridine]-3-carboxamide [Example 644] |  | IC50 (DLD1 BRCA2 (−/−) cells; 7-day CellTiter-Glo): 0.1 to 0.25 µM; IC50 (DLD1 WT cells; 7-day CellTiter-Glo): ≥ 10 µM
0.001 to 0.1 µM | COc1nnc(C(F)F)cc1-c1cc(C)ncc1C(=O)Nc1nc2c(s1)CN(C(=O)c1nccc(C(F)(F)F)c1F)C2 [Example 1026, 4-(6-(difluoromethyl)-3-methoxypyridazin-4-yl)-N-(5-(3-fluoro-4-(trifluoromethyl)picolinoyl)-5,6-dihydro-4H-pyrrolo[3,4-d]thiazol-2-yl)-6-methylnicotinamide] | ≥ 10 µM | 
0.001 to 0.1 µM | COc1cnc(Cl)cc1-c1cc(C)ncc1C(=O)Nc1nc2c(s1)CN(C(=O)c1cnc(C(F)(F)F)c(C)c1C)C2 | ≥ 10 µM | 
0.001 to 0.1 µM | COc1cnc(Cl)cc1-c1cc(C)ncc1C(=O)Nc1nc2c(s1)CN(C(=O)c1nc(OC)c(C(F)F)cc1C)C2 | ≥ 10 µM | 
0.001 to 0.1 µM | COc1cnc(Cl)cc1-c1cc(C)ncc1C(=O)Nc1nc2c(s1)CN(C(=O)c1cc(Cl)cnc1C)C2 | ≥ 10 µM | 
0.001 to 0.1 µM | COc1cnc(Cl)cc1-c1cc(C)ncc1C(=O)Nc1nc2c(s1)CN(C(=O)c1ncc(OC(F)F)cc1C)C2 | ≥ 10 µM | 
0.001 to 0.1 µM | COc1cnc(Cl)cc1-c1cc(C)ncc1C(=O)Nc1nc2c(s1)CN(C(=O)c1ccc(C#N)c(C(F)F)n1)C2 [Example 1015, 2′-chloro-N-(5-(5-cyano-6-(difluoromethyl)picolinoyl)-5,6-dibydro-4H-pyrrolo[3,4-d]thiazol-2-yl)-5′-methoxy-6-methyl-[4,4′-bipyridine]-3-carboxamide] | ≥ 10 µM | 
 | N-(5-(2-Chloro-3-(difluoromethyl)benzoyl)-5,6-dihydro-4H-pyrrolo[3,4-d]thiazol-2-yl)-4-(5-cyano-2-methoxyphenyl)-6-methylnicotinamide [Example 443] |  | IC50 (DLD1 BRCA2 (−/−) cells; 7-day CellTiter-Glo): 0.001 to 0.1 µM; IC50 (DLD1 WT cells; 7-day CellTiter-Glo): ≥ 10 µM
0.001 to 0.1 µM | COc1cc(C)c(C(=O)N2Cc3nc(NC(=O)c4cnc(C)cc4-c4cc(Cl)ncc4OC)sc3C2)c(Cl)n1 [Example 1030, 2′-chloro-N-(5-(2-chloro-6-methoxy-4-methylnicotinoyl)-5,6-dihydro-4H-pyrrolo[3,4-d]thiazol-2-yl)-5′-methoxy-6-methyl-[4,4′-bipyridine]-3-carboxamide] | ≥ 10 µM | 
0.001 to 0.1 µM | COc1ncc(Cl)cc1-c1cc(C)ncc1C(=O)Nc1nc2c(s1)CN(C(=O)c1ccc(C(F)(F)F)c(OC)n1)C2 [Example 1035, 5-chloro-2-methoxy-N-(5-(6-methoxy-5-(trifluoromethyl)picolinoyl)-5,6-dihydro-4H-pyrrolo[3,4-d]thiazol-2-yl)-6′-methyl-[3,4′-bipyridine]-3′-carboxamide] | ≥ 10 µM | 
0.001 to 0.1 µM | COc1cnc(Cl)cc1-c1cc(C)ncc1C(=O)Nc1nc2c(s1)CN(C(=O)c1ccc(C(C)(F)F)cn1)C2 | ≥ 10 µM | 
0.001 to 0.1 µM | COc1cnc(Cl)cc1-c1cc(C)ncc1C(=O)Nc1nc2c(s1)CN(C(=O)c1ccc(C(F)(F)F)nc1Cl)C2 [Example 923, 2′-chloro-N-(5-(2-chloro-6-(trifluoromethyl)nicotinoyl)-5,6-dihydro-4H-pyrrolo[3,4-d]thiazol-2-yl)-5′-methoxy-6-methyl-[4,4′-bipyridine]-3-carboxamide] | ≥ 10 µM | 
0.1 to 0.25 µM | COc1ccc(C(=O)N2Cc3nc(NC(=O)c4cnc(C)cc4-c4cc(Cl)ncc4OC)sc3C2)c(F)n1 [Example 1038, 2′-chloro-N-(5-(2-fluoro-6-methoxynicotinoyl)-5,6-dihydro-4H-pyrrolo[3,4-d]thiazol-2-yl)-5′-methoxy-6-methyl-[4,4′-bipyridine]-3-carboxamide] | ≥ 10 µM | 
 | 2′-Chloro-5′-methoxy-6-methyl-N-(5-(6-methyl-5-(trifluoromethoxy)picolinoyl)-5,6-dihydro-4H-pyrrolo[3,4-d]thiazol-2-yl)-[4,4′-bipyridine]-3-carboxamide [Example 555] |  | IC50 (DLD1 BRCA2 (−/−) cells; 7-day CellTiter-Glo): 0.001 to 0.1 µM; IC50 (DLD1 WT cells; 7-day CellTiter-Glo): ≥ 10 µM
0.001 to 0.1 µM | COc1ncc(Cl)cc1-c1cc(C)ncc1C(=O)Nc1nc2c(s1)CN(C(=O)c1ccc(C(F)F)cn1)C2 [Example 446, 5-Chloro-N-(5-(5-(difluoromethyl)picolinoyl)-5,6-dihydro-4H-pyrrolo[3,4-d]thiazol-2-yl)-2-methoxy-6′-methyl-[3,4′-bipyridine]-3′-carboxamide] | 2 to 5 µM | 
